Data on 1 molecule can be found in patent US10221158B2, “Heterocyclic constrained tricyclic sulfonamides as anti-cancer agents” (ICAHN SCHOOL OF MEDICINE AT MOUNT SINAI, priority 2015, dated 2019).

Each structure is given as a SMILES string.

The assay concerns H1650 lung cancer cells. Nature of the assay: Cell viability assay (MTT, IC50 determination). In kind it is cell-based. Conditions: Homo sapiens, NCI-H1650, 48 h drug treatment. The procedure: Cell Viability Assays (IC50 Determination)
Cell viability assays were performed according to Denizot, F. and R. Lang, Journal of Immunological Methods, 1986. 89(22): p. 271-277. H1650 lung cancer cells were plated at 150,000 cells per well in a 12 well plate. Twenty-four hours after plating, cells were treated as described with increasing concentrations of drug and control. Forty-eight hours after drug treatment, cells were treated with 100 μL of 3-(4,5-Dimethylthiazol-2-yl)-2,5-diphenyltetrazolium bromide (MTT) and incubated for 2 hours at 37 C. The MTT solution was subsequently replaced with 300 μL of n-propyl alcohol and re-aliquoted to a 96 well plate. Spectrophotometric analysis of each solution was performed using a 96 well plate reader at 600 nm in triplicate.

`O=S(=O)(N[C@@H]1COC[C@H](N2c3ccccc3CCc3ccccc32)[C@H]1O)c1ccc(OC(F)(F)F)cc1` (racemic) [Example 1, Rac-N-((3R,4R,5S)-5-(10,11-dihydro-5H-dibenzo[b,f]azepin-5-yl)-4-hydroxytetrahydro-2H-pyran-3-yl)-4-(trifluoromethoxy)benzenesulfonamide] yielded an IC50 of 15 µM.
